Source: US12514842B2, “Use of a benzoate containing composition to treat neurodegenerative disorders” (Rush University Medical Center, priority 2019, dated 2026)

Columns and labels:
[1] = test system: microglial activation; assay: Microglial activation in cortex (Iba-1 DAB staining, double-label immunofluorescence, Western blot); assay type: in vivo; details: N171-82Q Tg mice, about 50 mg/kg body wt/day via gavage, two months
Procedure: (§1) Three-month old transgenic (Tg) mice were treated with glyceryl tribenzoate (about 50 mg/kg body wt/day) via gavage. Control Huntington's disease mice received only 100 μl 0.5% methylcellulose as vehicle. After two months of treatment, microglial activation was monitored in cortical sections by DAB staining (FIG. 4A) and double-label immunofluorescence (FIG. 4B). The results shown in FIGS. 4A-4B represent an analysis of six mice per group.
FIG. 4D depicts the Mean Fluorescence Intensity (MFI) of iNOS in control mice (nTg), untreated N171-82Q mice and GTB treated N171-82Q mice. FIG. 4E is the western blot for Iba-1 and iNOS and FIGS. 4F and 4G are a quantitative analysis of the western blot shown in FIG. 4E.
(§2) As evident from Iba-1 immunostaining as well as Iba-1 Western blot, the inventor found microgliosis in the striatum (FIG. 3) and cortex (FIG. 4) of untreated N171-82Q Tg mice. Activated microglia also express inducible nitric oxide synthase (iNOS).

[2] = test system: microglial activation; assay: Microglial activation in striatum (Iba-1 DAB staining, double-label immunofluorescence, Western blot); assay type: in vivo; details: N171-82Q Tg mice, about 50 mg/kg body wt/day via gavage, two months
Procedure: as §1, with “transgenic” for “transgenic (Tg)”, “GTB” for “glyceryl tribenzoate”, “striatal” for “cortical”, “3A)” for “4A)”, “3B).” for “4B).”, “3A-3G” for “4A-4B”
FIG. 3D depicts the Mean Fluorescence Intensity (MFI) of iNOS in control mice (nTg), untreated N171-82Q mice and GTB treated N171-82Q mice. FIG. 3E is the western blot for Iba-1 and iNOS and FIGS. 3F and 3G are a quantitative analysis of the western blot shown in FIG. 3E.
as §2

[3] = test system: huntingtin (HTT) inclusion bodies; assay: Huntingtin inclusion bodies in striatum and cortex by immunohistochemistry and Western blotting; assay type: in vivo; details: N171-82Q Tg mice, about 50 mg/kg body wt/day via gavage, two months
Procedure: Deposition of huntingtin (HTT) inclusion bodies is a pathological hallmark of Huntington's disease. This pathology is based on an expansion of CAG repeats in exon 1 of the huntingtin gene on chromosome 4 that generates a mutant huntingtin protein leading to abnormal HTT aggregates.
Briefly, three-month old transgenic mice were treated with GTB (about 50 mg/kg body wt/day) via gavage. Control Huntington's disease mice received only 100 μl 0.5% methylcellulose as vehicle. After two months of treatment, huntingtin inclusion bodies (HTT) were monitored in brain sections (striatal—FIG. 2A, cortical—FIG. 2B) by immunohistochemistry. Further, HTT positive (“(+)ve”) cells were counted in two sections (striatal—FIG. 2C, cortical—FIG. 2D) of each of six mice per group.
FIG. 2A and 2B show the results from immunohistochemistry, which indicate that administration of GTB reduces the number of HTT inclusion bodies in striatum and cortex. FIGS. 2C and 2D show the number of HTT (+ve) cells in striatum and cortex of GTB treated and untreated mice and indicate a reduction in the number of HTT in treated mice.
This was also confirmed by Western blotting. By Western blotting, the inventor could detect 348 kDa band of aggregated HTT in the cortex that was inhibited by oral GTB treatment (FIG. 2E-2F).

[4] = test system: Huntington transgenic (N171-82Q) mice; assay: Locomotor activities after glyceryl tribenzoate nebulization in Huntington transgenic mice; assay type: in vivo; details: nebulization about 2 and about 5 mg/kg body wt/day, six weeks
Text: Since many features of Huntington's disease are modeled in N171-82Q transgenic mice, the effects of glyceryl tribenzoate nebulization on locomotor activities were examined in N171-82Q mice. A Buxco® Inhalation Tower All-In-One Controller was used to nebulize the glyceryl tribenzoate. A whole-body chamber was fitted with aeroneb ultrasonic nebulizers supplied with air from a Buxco® bias flow pump. Huntington transgenic (N171-82Q) mice were allowed to nebulize glyceryl tribenzoate at doses of about 2 and about 5 mg/kg body wt/day (solubilized in a volume of 100 μl saline/mouse) for 3 min. Briefly, three-month old transgenic mice were treated with different doses (about 2 and about 5 mg/kg body wt/d) of glyceryl tribenzoate solubilized in about 100 μl saline via nebulization. Control Huntington's disease mice received only 100 μl saline as vehicle. After six weeks of treatment, locomotor activities were monitored. Data are mean+SEM of three mice per group.
Velocity refers to the speed at which the mouse walks. Total distance refers to the distance covered by the mouse in a certain period of time. Moving frequency refers to how much a mouse moves around in a given time period and cumulative duration refers to total duration spent at the center.

[5] = test system: astroglial activation; assay: Astroglial activation in striatum and cortex (GFAP DAB staining); assay type: in vivo; details: N171-82Q Tg mice, about 50 mg/kg body wt/day via gavage, two months
Procedure: Three-month old transgenic (Tg) mice were treated with glyceryl tribenzoate (about 50 mg/kg body wt/day) via gavage. Control Huntington's disease mice received only 100 μl 0.5% methylcellulose as vehicle. After two months of treatment, astroglial activation was monitored in striatal (FIG. 5A) and cortical (FIG. 5B) sections by DAB staining. Further, the number of glial fibrillary acidic protein (GFAP) (+)ve cells were counted in two striatal (FIG. 5C) and cortical (FIG. 5D) sections of each of six mice per group.
Since astroglia are the major cell type in the CNS, any contribution from this cell type would be significant. Therefore, the inventor also monitored astrogliosis in the CNS of N171-82Q Tg mice.

[6] = test system: interleukin-6 (IL-6) and IL-1β; assay: Serum proinflammatory cytokines by sandwich ELISA; assay type: in vivo; details: N171-82Q mice, 50 mg/kg body wt/d via gavage, 1 month
Procedure: Three-month old Tg mice (n=3 in each group) were treated with GTB (50 mg/kg body wt/d) mixed with 100 μl 0.5% methylcellulose via gavage. Therefore, control HD mice received only 100 μl 0.5% methylcellulose as vehicle. After 1 month of treatment, levels of interleukin-6 (IL-6) and IL-1β were measured in serum by sandwich ELISA.
Results are mean+SEM of three mice per group. *p<0.05; ***p<0.001.

[7] = test system: DJ-1; details: astrocytes and neurons; cited from earlier work
[8] = test system: BDNF and NT-3; details: brain cells; cited from earlier work
[9] = test system: multiple sclerosis (MS) in mice; details: cited from earlier work

SMILES	expression of iNOS in cortex [1]	microgliosis in cortex ([1]; Iba-1)	expression of iNOS in striatum [2]	microgliosis in striatum ([2]; Iba-1)	348 kDa band of aggregated HTT in the cortex ([3]; Western blotting)	HTT inclusion in the cortex ([3]; immunohistochemistry)	HTT inclusion in the striatum ([3]; immunohistochemistry)	velocity ([4]; FIG. 1A)	total distance ([4]; FIG. 1B)	moving frequency ([4]; FIG. 1C)	cumulative duration ([4]; FIG. 1D)	rotorod performance ([4]; FIG. 1E)	astrogliosis in the CNS (GFAP, striatum and cortex) [5]	level of IL-1β in serum [6]	level of IL-6 in serum [6]	DJ-1 protein [7]	production of BDNF [8]	production of NT-3 [8]	disease process of multiple sclerosis (MS) [9]
O=C(OCC(COC(=O)c1ccccc1)OC(=O)c1ccccc1)c1ccccc1 [glyceryl tribenzoate, 2,3-dibenzoyloxypropyl benzoate]	significantly inhibited	significantly inhibited	significantly inhibited	significantly inhibited	inhibited	significant reduction	significant reduction	markedly improved	markedly improved	markedly improved	markedly improved	markedly improved	reduced	significantly decreases	significantly decreases				
O=C([O-])c1ccccc1.[Na+] [sodium benzoate]																up-regulates	increases	increases	suppresses
